Values quoted from earlier work, collected in US20230035823A1, “ANTIHISTAMINE AND ANTI-MICROBIAL NASAL SOLUTIONS AND RELATED METHODS” (Xlear, Inc., priority 2021, published 2023).

Tests used:
[1] = regular consumption
[2] = in vivo
Streptococcus pneumonia = conditions: in vitro, during logarithmic growth phase

OC[C@@H](O)[C@H](O)[C@@H](O)CO [Xylitol, xylitol]
incidence of dental caries [1]: reduce the incidence of dental caries
moisturizing nasal passages [2]: very effective
growth of Streptococcus pneumonia (Streptococcus pneumonia): inhibit the growth
